In publication PMC5642598, “Histone deacetylase inhibitor thailandepsin-A activates Notch signaling and suppresses neuroendocrine cancer cell growth in vivo” (Oncotarget, 2017) one finds EC50 data, which are given here for one compound.

As a reminder, the EC50 is the concentration needed to bring the measured effect to its halfway point. Read a low EC50 as higher potency in that assay.

The target of the test is T1, HDAC1 (Homo sapiens, UniProt Q13547).
T1 construct: HDAC1-NanoLuc fusion protein
Description: NanoBRET target engagement in live TT cells, competitive displacement of HDAC Tracer-01. The class given is cell-based. The text has this: NanoBRET target engagement in live TT cells, competitive displacement of HDAC Tracer-01 on HDAC1 | TDP-A dose-dependently attenuated BRET from intracellular HDAC1-NanoLuc fusion protein (Figure 1B) in low nanomolar concentrations
In general terms: In BRET a luciferase serves as donor, and the signal depends on an acceptor being close.

T1 sequence (Q13547 whole entry, the tested form may be a part): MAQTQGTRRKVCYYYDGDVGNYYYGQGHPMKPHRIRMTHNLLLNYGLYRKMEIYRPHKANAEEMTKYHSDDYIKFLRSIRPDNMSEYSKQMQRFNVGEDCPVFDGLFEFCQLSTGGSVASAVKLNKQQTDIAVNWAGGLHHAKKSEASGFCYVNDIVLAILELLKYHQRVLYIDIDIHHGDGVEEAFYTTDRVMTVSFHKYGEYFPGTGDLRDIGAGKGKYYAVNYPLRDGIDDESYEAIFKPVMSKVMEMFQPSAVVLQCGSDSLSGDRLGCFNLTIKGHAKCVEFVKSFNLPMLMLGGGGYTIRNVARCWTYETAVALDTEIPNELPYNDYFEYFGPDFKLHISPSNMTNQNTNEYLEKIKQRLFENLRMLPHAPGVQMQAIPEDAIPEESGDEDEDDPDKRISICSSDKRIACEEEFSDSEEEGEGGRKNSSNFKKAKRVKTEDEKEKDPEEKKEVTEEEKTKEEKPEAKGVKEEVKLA

Compound `CC[C@H](C)[C@H]1NC(=O)[C@H]2CSSCC/C=C/[C@H](CC(=O)N[C@H](CCSC)C(=O)N2)OC(=O)C[C@@H]1O` [TDP-A, thailandepsin A] registered an EC50 of 6.8 nM.
